Data from BindingDB's records for doi:10.1021/jm030424e (Isis Pharmaceuticals, 2004).

Experiment: Inhibition HCV RNA replication

| SMILES | EC50 [µM] |
| --- | --- |
| C[C@@]1(O)[C@@H](CO)O[C@@H](n2cnc3c(N)ncnc32)[C@@H]1O | > 50 |
| C[C@@]1(O)[C@H](O)[C@@H](CO)O[C@H]1n1cnc2cnc(N)nc21 [(2R,3R,4R,5R)-2-(2-amino-9H-purin-9-yl)-5-(hydroxymethyl)-3-methyloxolane-3,4-diol] | > 50 |
| Nc1nc2c(ncn2[C@@H]2O[C@H](CO)[C@@H](F)[C@H]2O)c(=O)[nH]1 [2-Amino-9-((2R,3S,4S,5R)-4-fluoro-3-hydroxy-5-hydroxymethyl-tetrahydro-furan-2-yl)-1,9-dihydro-purin-6-one] | > 50 |
| C[C@@]1(O)[C@H](O)[C@@H](CO)O[C@H]1n1cnc2c(=O)[nH]cnc21 [(2R,3R,4R,5R)-2-(6-hydroxy-9H-purin-9-yl)-5-(hydroxymethyl)-3-methyloxolane-3,4-diol] | > 50 |
| CO[C@@H]1[C@H](O)[C@@H](CO)O[C@H]1n1cnc2c(N)ncnc21 | > 50 |
| C[C@@]1(O)[C@H](O)[C@@H](CO)O[C@H]1n1cnc2cncnc21 [(2R,3R,4R,5R)-5-(hydroxymethyl)-3-methyl-2-(9H-purin-9-yl)oxolane-3,4-diol] | > 50 |
| CO[C@]1(C)[C@H](O)[C@@H](CO)O[C@H]1n1cnc2c(N)ncnc21 [(2R,3R,4R,5R)-5-(6-amino-9H-purin-9-yl)-2-(hydroxymethyl)-4-methoxy-4-methyloxolan-3-ol] | > 50 |
| Nc1nc2c(ncn2[C@@H]2O[C@H](CO)C[C@H]2O)c(=O)[nH]1 [2-Amino-9-((2R,3R,5S)-3-hydroxy-5-hydroxymethyl-tetrahydro-furan-2-yl)-1,9-dihydro-purin-6-one] | 50 |
| C[C@]1(O)[C@@H](CO)O[C@@H](n2cnc3c(N)ncnc32)[C@@H]1O | > 50 |
| C[C@]1(O)[C@H](O)[C@@H](CO)O[C@H]1n1cnc2c(N)ncnc21 [(2R,3S,4R,5R)-2-(6-amino-9H-purin-9-yl)-5-(hydroxymethyl)-3-methyloxolane-3,4-diol] | > 50 |
| C[C@@]1(O)[C@H](O)[C@@H](CO)O[C@H]1n1cnc2c(N)nc(N)nc21 [(2R,3R,4R,5R)-2-(2,6-diamino-9H-purin-9-yl)-5-(hydroxymethyl)-3-methyloxolane-3,4-diol] | 7 |
| Nc1nc2c(ncn2[C@@H]2O[C@H](CO)[C@@H](O)[C@H]2F)c(=O)[nH]1 [2-Amino-9-((2R,3R,4R,5R)-3-fluoro-4-hydroxy-5-hydroxymethyl-tetrahydro-furan-2-yl)-1,9-dihydro-purin-6-one] | > 50 |
| Nc1nc2c(ncn2[C@@H]2O[C@H](CO)[C@H](O)[C@H]2O)c(=O)[nH]1 | > 50 |
| CC[C@@]1(O)[C@H](O)[C@@H](CO)O[C@H]1n1cnc2c(N)ncnc21 [(2R,3R,4R,5R)-2-(6-amino-9H-purin-9-yl)-3-ethyl-5-(hydroxymethyl)oxolane-3,4-diol] | > 50 |
| Nc1ncnc2c1ncn2[C@@H]1O[C@H](CO)[C@@H](O)[C@@H]1O [adenine arabinoside] | > 50 |
| C[C@@]1(O)[C@H](O)[C@@H](CO)O[C@H]1n1cnc2c(N)ncnc21 [(2R,3R,4R,5R)-2-(6-amino-9H-purin-9-yl)-5-(hydroxymethyl)-3-methyl-tetrahydrofuran-3,4-diol] | 0.3 |
| CO[C@@H]1[C@H](O)[C@@H](CO)O[C@H]1n1cnc2c(=O)[nH]c(N)nc21 [2-Amino-9-((2R,3R,4R,5R)-4-hydroxy-5-hydroxymethyl-3-methoxy-tetrahydro-furan-2-yl)-1,9-dihydro-purin-6-one] | > 50 |
